In patent publication US9382228B2 (priority 2013, dated 2016):

Key:
[1] = target: T1, unphosphorylated c-FMS kinase (uFMS, Seq. ID no. 1) (Homo sapiens, UniProt P07333); experiment: biochemical; details: uFMS, enzymatic assay, ATP 500 μM
T1 sequence (P07333 538-972): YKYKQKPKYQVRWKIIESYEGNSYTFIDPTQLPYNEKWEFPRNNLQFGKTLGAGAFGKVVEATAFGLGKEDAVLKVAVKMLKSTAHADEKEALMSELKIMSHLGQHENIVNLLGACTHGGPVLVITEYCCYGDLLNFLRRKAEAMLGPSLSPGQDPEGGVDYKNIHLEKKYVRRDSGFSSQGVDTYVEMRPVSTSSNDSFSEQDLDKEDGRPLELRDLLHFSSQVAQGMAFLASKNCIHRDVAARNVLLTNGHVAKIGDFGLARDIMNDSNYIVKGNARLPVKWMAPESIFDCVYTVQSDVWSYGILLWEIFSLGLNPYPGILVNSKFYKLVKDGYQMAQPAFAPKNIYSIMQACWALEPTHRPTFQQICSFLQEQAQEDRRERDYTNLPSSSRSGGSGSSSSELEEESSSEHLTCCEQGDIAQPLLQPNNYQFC

[2] = target: unphosphorylated c-KIT kinase (uKIT, Seq. ID no. 2) (Homo sapiens, UniProt P10721); experiment: biochemical; details: uKIT, enzymatic assay, ATP 2000 μM
Description: uKit kinase (Seq. ID No. 2) Assay
In this assay, the oxidation of NADH (thus the decrease at A340 nm) was continuously monitored spectrophometrically. […] The inhibition reaction was started by mixing serial diluted test compound with the above reaction mixture. The absorption at 340 nm was monitored continuously for 4 hours at 30° C. on Synergy 2 plate reader (BioTech).

M-NFS-60 cells = experiment: cells; details: 67 h, read-out: M-NFS-60 cell proliferation
Description: M-NFS-6 Cell Proliferation Assay
A serial dilution of test compound was dispensed into a 384-well black clear bottom plate (Corning, Corning, N.Y.). Two thousand five hundred cells were added per well in 50 μL complete growth medium. […] IC50 values were calculated from a series of percent inhibition values determined at a range of inhibitor concentrations using software routines as implemented in the GraphPad Prism software package.

[3] = target: unphosphorylated PDGFRβ kinase (uPDGFRβ, Seq. ID No. 3) (Homo sapiens, UniProt P09619); experiment: biochemical; details: uPDGFRb, enzymatic assay, ATP 500 μM
osteoclast precursors = experiment: cells; assay type: cell-based; details: read-out: Osteoclast assay
Description: Osteoclast Tartrate-Resistant Acid Phosphatase Assay
Diluted compound was transferred to a 384-well black clear bottom plate. Two-thousand five hundred osteoclast precursors (Lonza, Walkersville, Md.) were added per well in growth media containing Receptor Activator of Nuclear Factor Kappa-beta ligand (RANKL) and M-CSF (R&D Systems, Minneapolis, Minn.). […] Tartrate-resistant acid phosphatase activity in the supernatant samples was determined using an acid phosphatase assay kit (Sigma, St. Louis, Mo.). Absorbance was measured at 550 nm using a plate reader. Data was analyzed using Prism software (Graphpad, San Diego, Calif.) to calculate IC50 values.

unphosphorylated PDGFRβ kinase (uPDGFRβ, Seq. ID No. 3), sequence (P09619 557-1106): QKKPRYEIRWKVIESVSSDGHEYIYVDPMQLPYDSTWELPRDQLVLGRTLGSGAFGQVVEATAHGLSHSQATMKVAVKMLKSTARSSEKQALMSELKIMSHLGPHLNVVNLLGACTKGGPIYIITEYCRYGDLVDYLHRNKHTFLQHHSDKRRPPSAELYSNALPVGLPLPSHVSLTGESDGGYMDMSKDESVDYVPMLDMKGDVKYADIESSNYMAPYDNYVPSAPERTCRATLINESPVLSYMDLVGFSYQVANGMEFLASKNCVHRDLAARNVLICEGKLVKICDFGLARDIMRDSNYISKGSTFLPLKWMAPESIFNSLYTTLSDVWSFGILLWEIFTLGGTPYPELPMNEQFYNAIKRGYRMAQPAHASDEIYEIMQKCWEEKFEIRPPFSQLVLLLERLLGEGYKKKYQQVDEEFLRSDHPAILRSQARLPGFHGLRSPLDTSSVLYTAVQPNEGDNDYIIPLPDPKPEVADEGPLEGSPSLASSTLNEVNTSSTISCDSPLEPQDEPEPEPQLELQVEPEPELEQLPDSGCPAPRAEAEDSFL
unphosphorylated c-KIT kinase (uKIT, Seq. ID no. 2), sequence (P10721 with tags, fused parts or gaps): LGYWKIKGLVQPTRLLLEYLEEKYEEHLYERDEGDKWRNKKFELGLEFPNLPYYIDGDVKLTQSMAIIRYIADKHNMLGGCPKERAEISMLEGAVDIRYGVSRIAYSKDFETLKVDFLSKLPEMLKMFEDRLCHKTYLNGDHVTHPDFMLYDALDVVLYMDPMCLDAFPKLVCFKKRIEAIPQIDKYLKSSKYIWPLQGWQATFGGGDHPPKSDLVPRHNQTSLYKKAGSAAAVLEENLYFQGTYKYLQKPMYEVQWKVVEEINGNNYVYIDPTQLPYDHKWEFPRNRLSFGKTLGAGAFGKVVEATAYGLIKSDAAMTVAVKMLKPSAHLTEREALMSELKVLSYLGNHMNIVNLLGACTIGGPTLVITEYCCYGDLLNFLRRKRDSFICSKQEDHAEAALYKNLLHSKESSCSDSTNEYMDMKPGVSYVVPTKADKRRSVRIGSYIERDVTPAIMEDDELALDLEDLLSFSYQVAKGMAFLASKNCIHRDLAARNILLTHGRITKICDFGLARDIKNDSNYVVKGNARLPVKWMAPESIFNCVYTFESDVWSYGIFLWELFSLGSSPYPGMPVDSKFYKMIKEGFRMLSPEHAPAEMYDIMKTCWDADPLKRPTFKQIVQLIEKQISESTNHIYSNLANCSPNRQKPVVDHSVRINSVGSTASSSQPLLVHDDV

Compound	IC50 [1]	IC50 [2]	IC50 (M-NFS-60 cells)	IC50 [3]	IC50 (osteoclast precursors)
Cc1nc(NC(=O)NC(=O)C(C)(C)C)ccc1Oc1ccnc(-c2ccc(N3CCN(C)CC3)cc2)c1 [Example 118, N-((6-methyl-5-((2-(4-(4-methylpiperazin-1-yl)phenyl)pyridin-4-yl)oxy)pyridin-2-yl)carbamoyl)pivalamide]	< 10 nM	10 to 100 nM	10 to 100 nM	100 to 1000 nM	10 to 100 nM
Cc1cn(-c2cc(Oc3cnc(NC(=O)NC(=O)C(C)(C)C)cc3C)ccn2)cn1 [Example 148, N-((4-methyl-5-((2-(4-methyl-1H-imidazol-1-yl)pyridin-4-yl)oxy)pyridin-2-yl)carbamoyl)pivalamide]	< 10 nM	10 to 100 nM	< 10 nM	> 1000 nM	10 to 100 nM
CCC(C)(C)C(=O)NC(=O)Nc1ccc(Oc2ccnc(-c3cnn(C)c3)c2)cn1 [Example 63, 2,2-dimethyl-N-((5-((2-(1-methyl-1H-pyrazol-4-yl)pyridin-4-yl)oxy)pyridin-2-yl)carbamoyl)butanamide]	< 10 nM	100 to 1000 nM	< 10 nM	100 to 1000 nM	< 10 nM
CC(C)(C)C(=O)NC(=O)Nc1ccc(Oc2ccnc(-c3cncnc3)c2)cn1 [Example 90, N-((5-((2-(pyrimidin-5-yl)pyridin-4-yl)oxy)pyridin-2-yl)carbamoyl)pivalamide]	10 to 100 nM	> 1000 nM	> 1000 nM	> 1000 nM	10 to 100 nM
Cc1cn(-c2cc(Oc3ccc(NC(=O)NC(=O)C(C)C)nc3C)ccn2)cn1 [Example 134, N-((6-methyl-5-((2-(4-methyl-1H-imidazol-1-yl)pyridin-4-yl)oxy)pyridin-2-yl)carbamoyl)isobutyramide]	10 to 100 nM	> 1000 nM	100 to 1000 nM	> 1000 nM	10 to 100 nM
CCC(=O)NC(=O)Nc1ccc(Oc2ccnc(-c3ccc(C)nc3)c2)cn1 [Example 108, N-((5-((6′-methyl-[2,3′-bipyridin]-4-yl)oxy)pyridin-2-yl)carbamoyl)propionamide]	10 to 100 nM	> 1000 nM	> 1000 nM	> 1000 nM	10 to 100 nM
CC(C)(C)C(=O)NC(=O)Nc1ccc(Oc2ccnc(-c3ccnc(C(F)(F)F)c3)c2)cn1 [Example 95, N-((5-((2′-(trifluoromethyl)-[2,4′-bipyridin]-4-yl)oxy)pyridin-2-yl)carbamoyl)pivalamide]	10 to 100 nM	> 1000 nM	100 to 1000 nM	> 1000 nM	10 to 100 nM
Cn1cc(-c2cc(Oc3ccc(NC(=O)NC(=O)C4(C(F)(F)F)CCC4)nc3)ccn2)cn1 [Example 101, N-((5-((2-(1-methyl-1H-pyrazol-4-yl)pyridin-4-yl)oxy)pyridin-2-yl)carbamoyl)-1-(trifluoromethyl)cyclobutanecarboxamide]	< 10 nM	100 to 1000 nM	< 10 nM	< 10 nM	10 to 100 nM
Cc1ncc(-c2cc(Oc3ccc(NC(=O)NC(=O)C4(C)CCOCC4)nc3)ccn2)o1 [Example 163, 4-methyl-N-((5-((2-(2-methyloxazol-5-yl)pyridin-4-yl)oxy)pyridin-2-yl)carbamoyl)tetrahydro-2H-pyran-4-carboxamide]	10 to 100 nM	100 to 1000 nM	10 to 100 nM	> 1000 nM	10 to 100 nM
COC(C)(C)C(=O)NC(=O)Nc1ccc(Oc2ccnc(-c3ccc(C#N)nc3)c2)c(C)n1 [Example 110, N-((5-((6′-cyano-[2,3′-bipyridin]-4-yl)oxy)-6-methylpyridin-2-yl)carbamoyl)-2-methoxy-2-methylpropanamide]	10 to 100 nM	> 1000 nM	100 to 1000 nM	> 1000 nM	10 to 100 nM
Cc1nc(NC(=O)NC(=O)C(C)(C)C)ccc1Oc1ccnc(-c2ccc(C3CCN(C)CC3)cc2)c1 [Example 109, N-((6-methyl-5-((2-(4-(1-methylpiperidin-4-yl)phenyl)pyridin-4-yl)oxy)pyridin-2-yl)carbamoyl)pivalamide]	< 10 nM	100 to 1000 nM	< 10 nM	100 to 1000 nM	10 to 100 nM
Cc1ccc(-c2cc(Oc3ccc(NC(=O)NC(=O)C4CCOC4)nc3)ccn2)cn1 (centres unmarked) [Example 89, N-((5-((6′-methyl-[2,3′-bipyridin]-4-yl)oxy)pyridin-2-yl)carbamoyl)tetrahydrofuran-3-carboxamide]	10 to 100 nM	> 1000 nM	10 to 100 nM	> 1000 nM	10 to 100 nM
Cn1cc(-c2cc(Oc3ccc(NC(=O)NC(=O)C4CCCCC4)nc3)ccn2)cn1 [Example 67, N-((5-((2-(1-methyl-1H-pyrazol-4-yl)pyridin-4-yl)oxy)pyridin-2-yl)carbamoyl)cyclohexanecarboxamide]	< 10 nM	< 10 nM	< 10 nM	10 to 100 nM	< 10 nM
CC(C)(C)C(=O)NC(=O)Nc1ccc(Oc2ccnc(-c3ccc(N)nc3)c2)cn1 [Example 106, N-((5-((6′-amino-[2,3′-bipyridin]-4-yl)oxy)pyridin-2-yl)carbamoyl)pivalamide]	< 10 nM	100 to 1000 nM	< 10 nM	> 1000 nM	< 10 nM
Cn1cc(-c2cc(Oc3ccc(NC(=O)NC(=O)C4CC5CCC4C5)nc3)ccn2)cn1 (centres unmarked) [Example 64, N-((5-((2-(1-methyl-1H-pyrazol-4-yl)pyridin-4-yl)oxy)pyridin-2-yl)carbamoyl)bicyclo[2.2.1]heptane-2-carboxamide]	< 10 nM	< 10 nM	< 10 nM	10 to 100 nM	10 to 100 nM
Cn1cc(-c2cc(Oc3ccc(NC(=O)NC(=O)C4CCCC4)nc3)ccn2)cn1 [Example 65, N-((5-((2-(1-methyl-1H-pyrazol-4-yl)pyridin-4-yl)oxy)pyridin-2-yl)carbamoyl)cyclopentanecarboxamide]	< 10 nM	< 10 nM	< 10 nM	100 to 1000 nM	< 10 nM
Cc1ccc(-c2cc(Oc3ccc(NC(=O)NC(=O)C4CCCC4)nc3C)ccn2)cn1 [Example 100, N-((6-methyl-5-((6′-methyl-[2,3′-bipyridin]-4-yl)oxy)pyridin-2-yl)carbamoyl)cyclopentanecarboxamide]	< 10 nM	10 to 100 nM	10 to 100 nM	> 1000 nM	< 10 nM
Cc1cc(NC(=O)NC(=O)C(C)C)ncc1Oc1ccnc(-c2cnn(C)c2)c1 [Example 88, N-((4-methyl-5-((2-(1-methyl-1H-pyrazol-4-yl)pyridin-4-yl)oxy)pyridin-2-yl)carbamoyl)isobutyramide]	< 10 nM	10 to 100 nM	< 10 nM	100 to 1000 nM	< 10 nM
COC1(C(=O)NC(=O)Nc2cc(C)c(Oc3ccnc(-n4cnc(C)c4)c3)cn2)CCCC1 [Example 162, 1-methoxy-N-((4-methyl-5-((2-(4-methyl-1H-imidazol-1-yl)pyridin-4-yl)oxy)pyridin-2-yl)carbamoyl)cyclopentanecarboxamide]	< 10 nM	10 to 100 nM	< 10 nM	100 to 1000 nM	10 to 100 nM
CC(C)(C)C(=O)NC(=O)Nc1ccc(Oc2ccnc(-c3ccc(C(F)(F)F)nc3)c2)cn1 [Example 94, N-((5-((6′-(trifluoromethyl)-[2,3′-bipyridin]-4-yl)oxy)pyridin-2-yl)carbamoyl)pivalamide]	< 10 nM	> 1000 nM	10 to 100 nM	> 1000 nM	10 to 100 nM
COC1(C(=O)NC(=O)Nc2ccc(Oc3ccnc(-c4cc(C)no4)c3)c(C)n2)CCCC1 [Example 166, 1-methoxy-N-((6-methyl-5-((2-(3-methylisoxazol-5-yl)pyridin-4-yl)oxy)pyridin-2-yl)carbamoyl)cyclopentanecarboxamide]	< 10 nM	100 to 1000 nM	10 to 100 nM	100 to 1000 nM	10 to 100 nM
COC(C)(C)C(=O)NC(=O)Nc1ccc(Oc2ccnc(-c3cnc(C)n3C)c2)cn1 [Example 139, N-((5-((2-(1,2-dimethyl-1H-imidazol-5-yl)pyridin-4-yl)oxy)pyridin-2-yl)carbamoyl)-2-methoxy-2-methylpropanamide]	100 to 1000 nM	> 1000 nM	100 to 1000 nM	> 1000 nM	10 to 100 nM
